Tests used:
Format in all cases: functional
[1] = test system: Curvularia; test: Antifungal activity against Curvularia lunata at 200 ug/mL after 48 hrs by disc diffusion method; details: for zone of inhibition at 200 µg/mL: read-out: DIZ
[2] = test system: Alternaria; test: Antifungal activity against Alternaria at 200 ug/mL after 48 hrs by disc diffusion method; details: for zone of inhibition at 200 µg/mL: read-out: DIZ
[3] = test system: Proteus vulgaris; test: Antibacterial activity against Proteus vulgaris at 200 ug/mL after 24 hrs by disc diffusion method; details: read-out: DIZ
[4] = test system: Pectobacterium carotovorum; test: Antibacterial activity against Erwinia carotovora at 200 ug/mL after 24 hrs by disc diffusion method; details: read-out: DIZ
[5] = Antibacterial activity against Xanthomonas citri at 200 ug/mL after 24 hrs by disc diffusion method; details: read-out: DIZ
[6] = test system: Staphylococcus aureus; test: Antibacterial activity against Staphylococcus aureus at 200 ug/mL after 24 hrs by disc diffusion method; details: read-out: DIZ

| Compound | inhibition zone (IZ) [1] | inhibition zone (IZ) [2] | zone of inhibition at 200 µg/mL [1] | zone of inhibition at 200 µg/mL [3] | zone of inhibition at 200 µg/mL [4] | zone of inhibition at 200 µg/mL [5] | zone of inhibition at 200 µg/mL [2] | zone of inhibition at 200 µg/mL [6] |
| --- | --- | --- | --- | --- | --- | --- | --- | --- |
| NYSTATIN | 15 mm | 15 mm | – | – | – | – | – | – |
| COc1cc(C(=O)/C=C/c2ccc(Oc3nc(Oc4ccc(/C=C/C(=O)c5cc(OC)c(OC)c(OC)c5)cc4)nc(Oc4ccc(/C=C/C(=O)c5cc(OC)c(OC)c(OC)c5)cc4)n3)cc2)cc(OC)c1OC | – | – | 14.1 mm | 11.1 mm | 12.3 mm | 10.1 mm | 13.2 mm | 13 mm |
| Cc1ccc(C(=O)/C=C/c2ccc(Oc3nc(Oc4ccc(/C=C/C(=O)c5ccc(C)cc5)cc4)nc(Oc4ccc(/C=C/C(=O)c5ccc(C)cc5)cc4)n3)cc2)cc1 | – | – | 6.96 mm | 10 mm | 8.03 mm | 10.1 mm | 5.16 mm | 7.93 mm |
| COc1ccc(C(=O)/C=C/c2ccc(Oc3nc(Oc4ccc(/C=C/C(=O)c5ccc(OC)cc5)cc4)nc(Oc4ccc(/C=C/C(=O)c5ccc(OC)cc5)cc4)n3)cc2)cc1 | – | – | 13.2 mm | 6.96 mm | 8.06 mm | 8.86 mm | 10.2 mm | 7.86 mm |
| O=C(/C=C/c1ccc(Oc2nc(Oc3ccc(/C=C/C(=O)c4ccc(Cl)cc4)cc3)nc(Oc3ccc(/C=C/C(=O)c4ccc(Cl)cc4)cc3)n2)cc1)c1ccc(Cl)cc1 | – | – | 7.2 mm | 14 mm | 8.06 mm | 10.1 mm | 8.03 mm | 12.1 mm |
| O=C(/C=C/c1ccc(Oc2nc(Oc3ccc(/C=C/C(=O)c4ccc(Br)cc4)cc3)nc(Oc3ccc(/C=C/C(=O)c4ccc(Br)cc4)cc3)n2)cc1)c1ccc(Br)cc1 | – | – | 10.1 mm | 11.9 mm | 13 mm | 11.1 mm | 6.16 mm | 9.96 mm |
| O=C(/C=C/c1ccc(Oc2nc(Oc3ccc(/C=C/C(=O)c4ccc([N+](=O)[O-])cc4)cc3)nc(Oc3ccc(/C=C/C(=O)c4ccc([N+](=O)[O-])cc4)cc3)n2)cc1)c1ccc([N+](=O)[O-])cc1 | – | – | 8.2 mm | 5.9 mm | 6.96 mm | 6.1 mm | 7 mm | 4.93 mm |
| COc1ccc(OC)c(C(=O)/C=C/c2ccc(Oc3nc(Oc4ccc(/C=C/C(=O)c5cc(OC)ccc5OC)cc4)nc(Oc4ccc(/C=C/C(=O)c5cc(OC)ccc5OC)cc4)n3)cc2)c1 | – | – | 12.2 mm | 7.86 mm | 9.1 mm | 10 mm | 12.2 mm | 9.1 mm |
| COc1ccc(C(=O)/C=C/c2ccc(Oc3nc(Oc4ccc(/C=C/C(=O)c5ccc(OC)c(OC)c5)cc4)nc(Oc4ccc(/C=C/C(=O)c5ccc(OC)c(OC)c5)cc4)n3)cc2)cc1OC | – | – | 12.1 mm | 12.3 mm | 12.2 mm | 11.1 mm | 12.1 mm | 9.9 mm |
| O=C(/C=C/c1ccc(Oc2nc(Oc3ccc(/C=C/C(=O)c4ccccc4)cc3)nc(Oc3ccc(/C=C/C(=O)c4ccccc4)cc3)n2)cc1)c1ccccc1 | – | – | 6.16 mm | 7.83 mm | 7.93 mm | 6.96 mm | 5.1 mm | 10 mm |
| O=C(/C=C/c1ccc(Oc2nc(Oc3ccc(/C=C/C(=O)c4cccc([N+](=O)[O-])c4)cc3)nc(Oc3ccc(/C=C/C(=O)c4cccc([N+](=O)[O-])c4)cc3)n2)cc1)c1cccc([N+](=O)[O-])c1 | – | – | 6.96 mm | 10 mm | 6 mm | 7.96 mm | 7.96 mm | 7.13 mm |
| CC1(C)S[C@@H]2[C@H](NC(=O)Cc3ccccc3)C(=O)N2[C@H]1C(=O)O [PENICILLIN G] | – | – | – | 15 mm | 15 mm | 15 mm | – | 15 mm |
